From ChEMBL document CHEMBL2311402 (J Med Chem, 2013) come the findings set out here.

One data set deals with Tubulin (Homo sapiens) (UniProt P68371+Q9H4B7+P0DPH7+P68366+Q13509+Q71U36+P04350+Q3ZCM7+P07437+P68363+Q9BQE3+Q6PEY2+Q13885+Q9BVA1+Q9BUF5). Kind of data set: Displacement of [3H]colchicine from tubulin (unknown origin) at 5 uM after 10 mins by DEAE-cellulose filter method. It counts as protein-complex assay. A general note: In a radioligand displacement assay an active substance lowers the binding of a labelled ligand.

In a further data set the target is CYP3A4 (Homo sapiens, UniProt P08684). Kind of data set: Inhibition of human CYP3A4 at 1 uM. It counts as ADME.
The target of a further data set is CYP2D6 (Homo sapiens, UniProt P10635). Kind of data set: Inhibition of human CYP2D6 at 1 uM. It counts as ADME.
In a further data set the target is CYP2C9 (Homo sapiens, UniProt P11712). Kind of data set: Inhibition of human CYP2C9 at 1 uM. It counts as ADME.
For another data set, the target named is CYP2C19 (Homo sapiens, UniProt P33261). Kind of data set: Inhibition of human CYP2C19 at 1 uM. It counts as ADME.
The target of a further data set is T1, CYP1A2 (Homo sapiens, UniProt P05177).
T1 sequence (P05177 whole entry): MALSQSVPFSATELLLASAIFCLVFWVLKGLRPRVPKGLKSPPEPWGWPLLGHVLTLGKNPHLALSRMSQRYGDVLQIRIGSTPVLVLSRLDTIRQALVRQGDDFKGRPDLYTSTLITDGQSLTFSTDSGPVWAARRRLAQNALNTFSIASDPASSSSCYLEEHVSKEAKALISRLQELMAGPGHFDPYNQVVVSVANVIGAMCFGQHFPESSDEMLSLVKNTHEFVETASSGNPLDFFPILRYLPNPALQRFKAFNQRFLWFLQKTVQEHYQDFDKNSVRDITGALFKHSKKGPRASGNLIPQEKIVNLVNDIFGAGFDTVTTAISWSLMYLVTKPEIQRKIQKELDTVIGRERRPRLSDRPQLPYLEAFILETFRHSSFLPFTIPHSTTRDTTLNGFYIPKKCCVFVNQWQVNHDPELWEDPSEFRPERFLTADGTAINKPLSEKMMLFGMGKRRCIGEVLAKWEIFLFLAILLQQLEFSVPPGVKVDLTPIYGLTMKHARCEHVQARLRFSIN
Kind of data set: Inhibition of human CYP1A2 at 1 uM. It counts as ADME.

The test system of another data set is U-87 MG. As to the kind of experiment: Induction of apoptosis in human U87MG assessed as reduction in mitochondrial membrane potential at 30 uM after 24 hrs by JC-1 staining-based fluorescence microscopy. Set-up: scale not given: the % may be the effect or the level left. It counts as functional, U-87MG ATCC.
Another data set relates to NCI/ADR-RES. Kind of data set: Cytotoxicity against human NCI/ADR-RES cells assessed as growth inhibition by trypan blue exclusion assay. It counts as functional, cell-based.
A short description of data set [1]: Cytotoxicity against human MESSA/DX5 cells assessed as growth inhibition after 72 hrs by Celltiter-Glo luminescent assay. It counts as functional, cell-based. As to conditions: MES-SA/Dx5, 72 h.
Another data set concerns HCT-116. Kind of data set: cells. As to conditions: Homo sapiens, HCT-116, 72 h.
A further data set deals with HCT-15. Kind of data set: cells. The settings on record: Homo sapiens, HCT-15, 72 h.
A further data set deals with HT-29. As to the kind of experiment: cells. The settings on record: Homo sapiens, HT-29, 48 h.
A further data set concerns A549. Kind of data set: cells. The settings on record: Homo sapiens, A549, 48 h.
The next data set relates to HeLa. Kind of data set: cells. The settings on record: Homo sapiens, 48 h.

Chain of CYP2C9 (P11712 whole entry): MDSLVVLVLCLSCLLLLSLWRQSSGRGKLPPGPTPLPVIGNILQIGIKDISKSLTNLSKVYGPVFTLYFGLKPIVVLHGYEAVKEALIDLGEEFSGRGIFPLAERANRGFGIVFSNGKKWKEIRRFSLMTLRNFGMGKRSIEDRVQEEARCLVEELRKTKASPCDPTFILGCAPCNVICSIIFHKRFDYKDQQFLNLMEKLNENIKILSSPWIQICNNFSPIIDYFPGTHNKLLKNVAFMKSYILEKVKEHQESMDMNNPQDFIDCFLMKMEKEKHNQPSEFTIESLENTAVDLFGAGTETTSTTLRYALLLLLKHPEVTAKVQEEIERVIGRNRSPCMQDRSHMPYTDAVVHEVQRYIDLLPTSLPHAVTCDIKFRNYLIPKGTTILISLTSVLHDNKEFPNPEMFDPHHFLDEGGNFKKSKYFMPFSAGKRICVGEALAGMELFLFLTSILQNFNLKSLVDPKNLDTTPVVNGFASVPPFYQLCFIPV
Chain of CYP2C19 (P33261 whole entry): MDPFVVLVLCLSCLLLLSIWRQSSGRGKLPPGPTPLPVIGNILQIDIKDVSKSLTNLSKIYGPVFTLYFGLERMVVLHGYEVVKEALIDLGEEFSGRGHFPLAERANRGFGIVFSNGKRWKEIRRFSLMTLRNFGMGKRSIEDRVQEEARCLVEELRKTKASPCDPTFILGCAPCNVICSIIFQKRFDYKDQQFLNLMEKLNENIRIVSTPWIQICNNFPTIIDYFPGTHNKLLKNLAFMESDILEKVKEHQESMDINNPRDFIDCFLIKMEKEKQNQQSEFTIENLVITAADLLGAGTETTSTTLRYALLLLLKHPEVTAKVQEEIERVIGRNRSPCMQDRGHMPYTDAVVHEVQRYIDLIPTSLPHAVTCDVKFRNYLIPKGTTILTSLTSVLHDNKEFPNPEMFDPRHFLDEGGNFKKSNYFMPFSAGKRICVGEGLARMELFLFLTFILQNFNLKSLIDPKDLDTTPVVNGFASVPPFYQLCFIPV
Chain of CYP2D6 (P10635 whole entry): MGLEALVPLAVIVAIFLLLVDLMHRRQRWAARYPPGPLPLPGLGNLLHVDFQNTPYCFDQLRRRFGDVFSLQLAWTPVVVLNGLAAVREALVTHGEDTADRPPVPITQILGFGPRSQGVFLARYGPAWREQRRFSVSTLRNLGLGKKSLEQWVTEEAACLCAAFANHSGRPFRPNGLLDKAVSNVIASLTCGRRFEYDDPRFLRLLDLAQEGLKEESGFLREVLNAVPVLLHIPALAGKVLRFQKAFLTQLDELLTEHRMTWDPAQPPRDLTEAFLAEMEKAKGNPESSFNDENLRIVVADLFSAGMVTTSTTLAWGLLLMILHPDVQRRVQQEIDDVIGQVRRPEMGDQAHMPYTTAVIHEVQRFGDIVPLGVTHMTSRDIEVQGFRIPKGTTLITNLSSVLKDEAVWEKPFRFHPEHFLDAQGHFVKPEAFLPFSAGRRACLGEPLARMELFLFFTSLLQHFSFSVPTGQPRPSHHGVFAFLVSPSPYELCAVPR
Chain of CYP3A4 (P08684 whole entry): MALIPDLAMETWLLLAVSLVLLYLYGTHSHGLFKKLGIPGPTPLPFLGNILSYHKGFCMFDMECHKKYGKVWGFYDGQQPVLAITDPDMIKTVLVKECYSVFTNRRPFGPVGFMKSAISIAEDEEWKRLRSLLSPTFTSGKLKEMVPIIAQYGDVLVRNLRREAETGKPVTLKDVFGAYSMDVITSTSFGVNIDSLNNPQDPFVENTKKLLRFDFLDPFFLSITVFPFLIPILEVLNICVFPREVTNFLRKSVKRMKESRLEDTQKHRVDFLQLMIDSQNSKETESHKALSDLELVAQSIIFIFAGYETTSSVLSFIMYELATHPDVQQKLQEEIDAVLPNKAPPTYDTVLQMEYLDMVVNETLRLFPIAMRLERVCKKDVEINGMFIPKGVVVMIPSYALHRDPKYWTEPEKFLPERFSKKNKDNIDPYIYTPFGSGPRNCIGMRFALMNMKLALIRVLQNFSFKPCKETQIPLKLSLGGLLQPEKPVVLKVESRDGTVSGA
Description for A549: Cytotoxicity against human A549 cells assessed as growth inhibition after 48 hrs by MTT assay
Description for HCT-116: Cytotoxicity against human HCT116 assessed as growth inhibition after 72 hrs by Celltiter-Glo luminescent assay
Description for HCT-15: Cytotoxicity against human HCT15 cells assessed as growth inhibition after 72 hrs by Celltiter-Glo luminescent assay
Description for HT-29: Cytotoxicity against human HT-29 cells assessed as growth inhibition after 48 hrs by MTT assay
Description for HeLa: Cytotoxicity against human HeLa cells assessed as growth inhibition after 48 hrs by MTT assay

For orientation: inhibition means the relative decrease from the control value, in per cent. On to `COc1cc(C(=O)c2c(-c3cc[nH]c3)[nH]c3ccccc23)cc(OC)c1OC`, for which, on Tubulin (Homo sapiens), the inhibition was 71%.
`COc1cc(Sc2c(-c3ccccc3F)[nH]c3ccccc23)cc(OC)c1OC`: the inhibition on Tubulin (Homo sapiens) came to 74%.
Regarding `COc1cc(Sc2c(-c3nccs3)[nH]c3ccccc23)cc(OC)c1OC`, the inhibition at Tubulin (Homo sapiens) worked out at 72%.
Consider `COc1cc(Sc2c(-c3ccncc3)[nH]c3ccccc23)cc(OC)c1OC`, for which the inhibition at 1 µM amounted to 58% against CYP3A4; 43.1% against CYP2D6; 100% against CYP2C9; 100% at CYP2C19; 14.5% against CYP1A2. The inhibition on Tubulin (Homo sapiens) worked out at 91%.
For `COc1cc(Sc2c(-n3ccnc3)[nH]c3ccccc23)cc(OC)c1OC`, the inhibition at 1 µM is 94.5% on CYP3A4; 10.6% at CYP2D6; 95.9% against CYP2C9; 82.5% against CYP2C19; 22.9% on CYP1A2. The inhibition at Tubulin (Homo sapiens) is 92%.
As to `COc1cc(C(=O)c2c(-c3ccc[nH]3)[nH]c3ccccc23)cc(OC)c1OC`, at Tubulin (Homo sapiens), the inhibition was found to be 79%.
Take `N#CC(C#N)=NNc1cccc(Cl)c1` [CARBONYL CYANIDE M-CHLOROPHENYLHYDRAZONE]: the Activity in the data set on U-87 MG was determined as 50%.
With `COc1cc(Sc2c(-c3cccc(F)c3)[nH]c3ccccc23)cc(OC)c1OC`, the inhibition at Tubulin (Homo sapiens) came out at 75%.
Still for that read-out and setting: for `COc1cc(C(=O)c2c(-c3ccco3)[nH]c3ccccc23)cc(OC)c1OC` the value was 78%; for `COc1cc(Sc2c(-c3cn[nH]c3)[nH]c3ccccc23)cc(OC)c1OC`, 81%; for `COc1cc(Sc2c(-c3cc[nH]n3)[nH]c3ccccc23)cc(OC)c1OC`, 78%.
`COc1cc(Sc2c(-c3ccc(F)cc3)[nH]c3ccccc23)cc(OC)c1OC`: at Tubulin (Homo sapiens), the inhibition was found to be 74%.
What is called IC50 is the point on the concentration scale where inhibition reaches its midpoint. As for `CCC1=C[C@@H]2CN(C1)Cc1c([nH]c3ccccc13)[C@@](C(=O)OC)(c1cc3c(cc1OC)N(C)[C@H]1[C@@](O)(C(=O)OC)[C@H](OC(C)=O)[C@]4(CC)C=CCN5CC[C@]31[C@@H]54)C2` [VINORELBINE], the IC50 with NCI/ADR-RES worked out at 5000 nM.
As to `COc1cc(Sc2c(-c3cccnc3)[nH]c3ccccc23)cc(OC)c1OC`, the inhibition at 1 µM against CYP3A4 amounted to 76.4%; on CYP2C9 it was 102%; at CYP2C19, 84.9%; at CYP1A2, 23.4%. The inhibition at Tubulin (Homo sapiens) amounted to 88%.
As to `CC[C@]1(O)C[C@@H]2CN(CCc3c([nH]c4ccccc34)[C@@](C(=O)OC)(c3cc4c(cc3OC)N(C)[C@H]3[C@@](O)(C(=O)OC)[C@H](OC(C)=O)[C@]5(CC)C=CCN6CC[C@]43[C@@H]65)C2)C1` [VINBLASTINE], the IC50 in data set [1] worked out at 144 nM; with HCT-116, 3 nM; with HCT-15 it was 24 nM; in the data set on HT-29 it was 30 nM; in the data set with A549 it was 20 nM; in the data set with HeLa it was 10 nM.
For the compound `COc1cc(C(O)c2c(-c3cc[nH]c3)[nH]c3ccccc23)cc(OC)c1OC` (stereo not drawn), the inhibition at Tubulin (Homo sapiens) turned out to be 70%.
The compound `CC(=O)O[C@H]1C(=O)[C@@]2(C)[C@H]([C@H](OC(=O)c3ccccc3)[C@]3(O)C[C@H](OC(=O)[C@H](O)[C@@H](NC(=O)c4ccccc4)c4ccccc4)C(C)=C1C3(C)C)[C@]1(OC(C)=O)CO[C@@H]1C[C@@H]2O` [PACLITAXEL] came in with an IC50 in the data set on HCT-15 of 90 nM.
Take `COc1cc(Sc2c(-n3cncn3)[nH]c3ccccc23)cc(OC)c1OC`: the inhibition at 1 µM on CYP3A4 was 51.4%; against CYP2D6, under 5%; at CYP2C9 it was 93.1%; on CYP2C19 it was 83.9%; at CYP1A2, under 5%. Moreover, the inhibition on Tubulin (Homo sapiens) is 83%.
For the compound `COc1cc(C(=O)c2c(-c3ccoc3)[nH]c3ccccc23)cc(OC)c1OC`, on Tubulin (Homo sapiens), the inhibition amounted to 77%.
